Laboratory results: paper PMC9138261, “Enhancing the Bioactivity of Bicyclic Peptides Targeted to Grb7-SH2 by Restoring Cell Permeability” (Biomedicines, 2022)
Where two headings read alike, the source gives them in different places. Positions of bridges follow the written chain, without caps; N, C: chain ends. Residues, ends and D or L forms follow the SMILES beside them. No end group written: not given here.

Tests used:
Grb7-SH2 domain [1] = biological target: T1, Grb7-SH2 domain (Homo sapiens, UniProt Q14451); test: Surface plasmon resonance (SPR) binding to Grb7-SH2 domain; details: for Kd: SPR BIAcore T100, GST-Grb7-SH2 captured via anti-GST antibody on CM5 chip, 50mM Na3PO4, 150–300 mM NaCl, 1 mM DTT pH 7.4, peptides without Penetratin, 0.015 to 250 μM, triplicate injections, steady-state, single-site binding model, errors are SD from model, SD, read-out: equilibrium dissociation binding constant (KD)
T1 construct: made in house
Method: GST and GST-Grb7-SH2 proteins were expressed and purified as previously described. Briefly, Grb7-SH2 was expressed as a GST fusion, and protein was purified via GST affinity chromatography, followed by size exclusion chromatography.
SPR experiments were carried out as previously described using the BIAcore T100 [23, 26]. BIAcore CM5 series S sensor chips (GE Life Sciences, Paramatta, NSW, Australia) were utilised. Amine coupling was used to immobilise the anti-GST antibody (Abcam, Cambridge, UK) to all flow cells. The immobilisation levels were between 11,000 RU and 7700 RU. As a control, the first flow cell captured only GST. GST-Grb7-SH2 was immobilised on flow cell 2 at close to 2800 RU. Peptides were resuspended in an analysis buffer consisting of 50mM Na3PO4, 150–300 mM NaCl, and 1 mM DTT (pH 7.4). The peptide was injected over flow cells at 30 μL/min for 60–80 s in triplicates. Double-referenced SPR data were analysed using Scrubber 2.0 (BioLogic Software, Campbell, ACT, Australia) and Prism 9.2.0 (GraphPad Prism v9.0, San Diego, CA, USA).
Here, it should be noted that the peptides were tested in the absence of the Penetratin tail shown in the schematic (Figure 1). In brief, peptides, at a range of concentrations, flowed over the chip surface to which the Grb7-SH2 domain was tethered, and the response was detected over time. […] In order to quantitate the binding affinities, the equilibrium dissociation binding constants (KD) for each peptide were calculated using binding curves derived from the sensogram responses at equilibrium (Figure 2E).
Figure 2 SPR binding analysis of newly developed Grb7-SH2-targeting peptides. […] Errors are SD arising from model.

Grb7-SH2 domain [2] = biological target: T1, Grb7-SH2 domain; details: earlier work; cited from earlier work
Description: Three peptides were designed with Phe-Pro, Phe-Trp, or Phe-Arg incorporated at positions 9 and 10 of the amino acid sequence. […] Thus, it can be concluded that the lactam linkage confers a degree of rigidity sufficient to enha ...
Target sequence in this assay (Q14451 431-527 limits assumed): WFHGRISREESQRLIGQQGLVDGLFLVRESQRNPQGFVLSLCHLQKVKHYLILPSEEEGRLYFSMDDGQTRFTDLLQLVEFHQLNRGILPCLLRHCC

[3] = not told; cited from earlier work
GST-Grb7-SH2 = biological target: T2, GST-Grb7-SH2 (UniProt Q14451 415-532); test: SPR; BIAcore T100, CM5 chip; GST-Grb7-SH2 held (close to 2800 RU) on amine-coupled anti-GST antibody, GST alone on the reference flow cell; peptides 0.015 to 250 uM injected at 30 uL/min for 60-80 s in triplicates; 50 mM Na3PO4, 150-300 mM NaCl, 1 mM DTT, pH 7.4; KD from steady-state responses, single-site binding model; details: both partners purified
T2 construct: Captured on the chip by an anti-GST antibody; also called Grb7-SH2 domain
T2 sequence (Q14451 415-532): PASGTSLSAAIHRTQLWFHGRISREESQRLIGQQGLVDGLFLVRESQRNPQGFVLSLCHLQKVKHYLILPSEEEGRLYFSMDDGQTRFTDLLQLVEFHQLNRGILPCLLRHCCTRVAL

Molecule: N=C(N)NCCC[C@@H]1NC(=O)[C@H](Cc2ccccc2)NC(=O)[C@@H]2CCC(=O)NCCCC[C@H](NC(=O)CSC[C@@H](C(N)=O)NC1=O)C(=O)N[C@@H](Cc1ccccc1)C(=O)N[C@@H](CCC(=O)O)C(=O)NCC(=O)N[C@@H](Cc1ccc(O)cc1)C(=O)N[C@@H](CC(=O)O)C(=O)N[C@@H](CC(N)=O)C(=O)N2 [G7-B10] ({CH2CO}-KFEGYDNEFRC-NH2; lactam 1-8; thioether N-11; C-terminus assumed)
- Kd (Grb7-SH2 domain [1]): 1150 ± 408 nM

Molecule: NC(=O)C[C@@H]1NC(=O)[C@H](CC(=O)O)NC(=O)[C@H](Cc2ccc(O)cc2)NC(=O)CNC(=O)[C@H](CCC(=O)O)NC(=O)[C@H](Cc2ccccc2)NC(=O)[C@@H]2CCCCNC(=O)CC[C@H](NC1=O)C(=O)N[C@@H](Cc1ccccc1)C(=O)N1CCC[C@H]1C(=O)N[C@H](C(N)=O)CSCC(=O)N2 [G7-B8] ({CH2CO}-KFEGYDNEFPC-NH2; lactam 1-8; thioether N-11; C-terminus assumed)
- Kd (Grb7-SH2 domain [1]): 860 ± 80 nM
- fold increase in affinity over G7-18NATE (Grb7-SH2 domain [1]; ratio of SPR KD values): approximately 8 fold

Molecule: G7-B1: bicyclic G7 peptide with O-allylserine-based olefin staple between positions 1 and 8 (SFEGYDNSFPC; bicyclic: O-allylserine at positions 1 and 8 (parent Ser) joined by olefin staple (ring-closing metathesis); thioether linkage from N-terminal amine (acetyl/CH2CO) to Cys11 side chain; C-terminal amid)
- Kd (Grb7-SH2 domain [2]): 1500 nM

Molecule: NC(=O)C[C@@H]1NC(=O)[C@H](CC(=O)O)NC(=O)[C@H](Cc2ccc(O)cc2)NC(=O)CNC(=O)[C@H](CCC(=O)O)NC(=O)[C@H](Cc2ccccc2)NC(=O)[C@@H]2CCCCNC(=O)CC[C@H](NC1=O)C(=O)N[C@@H](Cc1ccccc1)C(=O)N[C@@H](Cc1c[nH]c3ccccc13)C(=O)N[C@H](C(N)=O)CSCC(=O)N2 [G7-B9] ({CH2CO}-KFEGYDNEFWC-NH2; lactam 1-8; thioether N-11; C-terminus assumed)
- Kd (Grb7-SH2 domain [1]): 2680 ± 390 nM

Molecule: KFEGYDNEC (also: bicyclic or more (positions not given here)) [G7-B7]
- membrane permeability [3]: membrane-impermeable

B1: G7-18NATE (peptide)
peptide: WFEGYDNTFPC
modifications: cyclic: thioether linkage that tethers the N-terminal amine to the cysteine side chain
notes: non-phosphorylated cyclic peptide of 11 amino acids identified by phage display; also called first-generation monocyclic peptide; source: synthetic peptide, bought: Purar Chemicals (RP-HPLC, >95% purity)
- Kd (GST-Grb7-SH2): 7830 nM
